Here are results for four molecules from paper PMC7366380, “Discovery of a Potent and Selective Covalent Inhibitor and Activity-Based Probe for the Deubiquitylating Enzyme UCHL1, with Antifibrotic Activity” (Journal of the American Chemical Society, 2020).

As usually defined, the IC50 is the point on the concentration scale where inhibition reaches its midpoint. Low readings indicate greater potency in that assay, high ones weaker potency in that assay.

Assay [1] has as its target T1, UCHL1 (Homo sapiens, UniProt P09936).
T1 sequence (P09936 1-223): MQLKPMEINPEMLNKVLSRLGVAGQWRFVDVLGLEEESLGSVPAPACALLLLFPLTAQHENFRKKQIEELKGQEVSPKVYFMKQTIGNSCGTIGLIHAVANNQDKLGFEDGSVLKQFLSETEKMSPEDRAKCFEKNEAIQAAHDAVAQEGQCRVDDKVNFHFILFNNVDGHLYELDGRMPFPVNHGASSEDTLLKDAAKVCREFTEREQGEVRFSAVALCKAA
In words: Reversible inhibition (jump dilution) assay with Ub-AMC. The format is biochemical. More on the design: rapidly targets endogenous UCHL1 in cells; endogenous in cells; host or cells: HEK293. Conditions: UCHL1 300 nM, compound 400 nM, 30 min, 100x dilution. How it is done:
Figure S2. UCHL1 kinetics
(a) Kinetic analysis of UCHL1 (3 nM)-catalyzed cleavage of varied concentrations of Ub-AMC.
(b) Non-linear fit of Michaelis –Menten equation to initial reaction velocities versus Ub-AMC […]
(c) Apparent rate of inhibition (ka) of compound 1 and 2 at varying concentrations. Ub-AMC (130 nM) fluorescence intensity was measured in the presence of UCHL1 (3 nM). The apparent rate constant for inhibition, ka/I was determined by linear regression, giving the absolute value of the rate constant kobs/I values for […]
13000) M-1s-1, respectively. […]
intensity read immediately for 1 h. […]
The excess ligand was removed by washing with buffer D in an Amicon® Ultra MWCO 10 kDa centrifugation spin filter three times. The protein-adducts were desalted using 3× SDB-XC polystyrene-divinylbenzene copolymer extraction disks, following published methods.5 Samples were eluted with 50% (v/v) MeCN 0.5% (v/v) formic acid in LC-MS grade water and analyzed by LC-ESI (ACQUITY UPLC H-Class PLUS instrument (Waters)) using an ACQUITY UPLC BEH C4 column (Waters) coupled with Waters LCT Premier MS detector. […]
The MS data was analyzed by PEAKS Studio 8.5 (Bioinformatics Solutions Inc.). […]
Homogeneous time resolved fluorescence (HTRF) assay […]
BME) and incubated for 30 min at room temperature. […] The plates were sealed and incubated overnight at 4 °C then read using a PHERAstar (BMG), and the Delta F calculated: […]

Assay [2] concerns the target T1, UCHL1. The assay can be described thus: biochemical.
For assay [3], the target named is T1, UCHL1. Conditions: HEK293T, 1 h treatment, immunoblot. (In western blotting, separated proteins are transferred to a membrane and probed.)
For assay [4], the system named is 20 DUBs. In words: Biochemical DUB selectivity profiling (FP and FI assays), whole panel.
Assay [5] concerns the target USP16 (Homo sapiens, UniProt Q9Y5T5). The assay can be described thus: biochemical.
Where [6] appears, read: Biochemical IC50 range, UCHL1, Ub-Lys-TAMRA 50 nM, buffer A.
The mark [7] stands for this setting: UCHL1 IC50 (FP, 95% CI), UCHL1 5 nM, 30 min preincubation, Ub-Lys-TAMRA 50 nM.

Each structure is given as a SMILES string.

Chain of USP16 (Q9Y5T5 whole entry, species assumed): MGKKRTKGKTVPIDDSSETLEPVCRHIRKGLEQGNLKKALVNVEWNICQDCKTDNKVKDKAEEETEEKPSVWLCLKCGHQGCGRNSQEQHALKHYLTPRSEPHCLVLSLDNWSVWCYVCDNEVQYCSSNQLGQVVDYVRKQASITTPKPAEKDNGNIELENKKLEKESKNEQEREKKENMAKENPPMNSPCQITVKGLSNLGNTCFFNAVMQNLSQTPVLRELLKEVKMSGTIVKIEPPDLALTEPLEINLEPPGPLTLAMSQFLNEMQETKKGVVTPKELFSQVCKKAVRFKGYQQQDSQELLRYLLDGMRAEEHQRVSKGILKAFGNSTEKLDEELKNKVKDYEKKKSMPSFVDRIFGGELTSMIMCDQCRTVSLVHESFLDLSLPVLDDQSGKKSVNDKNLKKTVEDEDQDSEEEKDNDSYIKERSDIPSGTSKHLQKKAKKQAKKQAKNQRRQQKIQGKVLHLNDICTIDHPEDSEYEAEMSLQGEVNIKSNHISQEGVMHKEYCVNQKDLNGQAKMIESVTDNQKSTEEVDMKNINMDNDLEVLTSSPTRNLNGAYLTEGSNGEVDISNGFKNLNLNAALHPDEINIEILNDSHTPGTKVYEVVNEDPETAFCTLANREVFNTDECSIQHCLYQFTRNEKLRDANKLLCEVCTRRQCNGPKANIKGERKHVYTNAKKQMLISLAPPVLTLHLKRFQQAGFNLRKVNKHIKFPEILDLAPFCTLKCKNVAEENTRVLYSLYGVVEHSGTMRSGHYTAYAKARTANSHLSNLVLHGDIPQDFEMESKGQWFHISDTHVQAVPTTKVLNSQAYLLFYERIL

As to `N#CN1CCC[C@H]1C(=O)N1CCc2c(-c3c[nH]c4ncccc34)cccc21` [Compound 1], the “reversibility of inhibition after dilution” value in assay [1] is “slowly reversible”. Also, the IC50 is < 0.1 µM in assay [2] (setting [6]), 0.09 µM in assay [2] (setting [7]) and > 10 µM in assay [5]. Further, the “in-cell competition for HA-Ub-VME labeling of UCHL1” value in assay [3] is “concentration-dependent competition”. Moreover, the “activity/selectivity in cross-screening against 20 DUBs” value in assay [4] is “exquisite selectivity”.

In the case of `C#Cc1cnc2[nH]cc(-c3cccc4c3CCN4C(=O)[C@@H]3CCCN3C#N)c2c1` [Compound 2], the “reversibility of inhibition after dilution” value in assay [1] was “slowly reversible”. The IC50 in assay [2] (setting [6]) is < 0.1 µM; in assay [2] (setting [7]), 0.038 µM. The “in-cell competition for HA-Ub-VME labeling of UCHL1” value in assay [3] is on record as “concentration-dependent competition”.

For `N#CN1CCC[C@@H]1C(=O)N1CCc2c(-c3c[nH]c4ncccc34)cccc21` [Compound 3], the IC50 in assay [2] (setting [6]) is > 10 µM; in assay [2] (UCHL1 IC50 (FP), UCHL1 5 nM, 30 min preincubation, Ub-Lys-TAMRA 50 nM, bound = maximum assay concentration), > 100 µM. Further, in assay [4], the “activity/selectivity in cross-screening against 20 DUBs” value is “inactive”.

As for `CC(=O)O/N=C1\C(=O)N(Cc2cc(Cl)ccc2Cl)c2ccc(Cl)cc21` [LDN-57444, reference compound], the 50% inhibitory concentration (IC50) in assay [5] is > 10 µM.
